In BigSolDB 2.1:

CC[C@H]1OC(=O)[C@H](C)[C@@H](O[C@H]2C[C@@](C)(OC)[C@@H](O)[C@H](C)O2)[C@H](C)[C@@H](O[C@@H]2O[C@H](C)C[C@H](N(C)C)[C@H]2O)[C@](C)(O)C[C@@H](C)C(=O)[C@H](C)[C@@H](O)[C@]1(C)O.N#CS.O.O
solubility (mole fraction)
Settings	288.15 K	293.15 K	298.15 K	303.15 K	308.15 K	313.15 K	318.15 K
in ethanol	0.00426	0.00475	0.00525	0.00586	0.00679	0.00767	0.00856
in isopropanol	0.00104	0.00121	0.00136	0.00157	0.00175	0.002	0.00227
in methanol	0.0119	0.0128	0.0144	0.0158	0.0173	0.0189	0.0203
in n-propanol	0.00409	0.00437	0.00488	0.00567	0.00643	0.00725	0.00841
